In the CheMixHub drug solubility set:

Assay: xn = mol fraction of the nth substance listed, in the solute-free solvent

O=c1ccc2ccccc2o1 + CCO + O
solubility (g/100 g solution)
Details | 278.15 K | 283.15 K | 288.15 K | 293.15 K | 298.15 K | 303.15 K | 308.15 K | 313.15 K | 318.15 K
x2 = 0.1429 | 0.201 | 0.363 | 0.646 | 1.12 | 1.9 | 3.1 | 4.94 | 7.56 | 12.1
x2 = 0.2857 | 0.809 | 1.49 | 2.82 | 4.84 | 8.59 | 14.1 | 23.6 | 36.2 | 52.4
x2 = 0.4286 | 2.35 | 4.02 | 6.77 | 10.7 | 17.5 | 25.7 | 37.2 | 51.5 | 65.7
x2 = 0.5714 | 3.44 | 5.45 | 9.19 | 13.8 | 21.1 | 30.1 | 41.7 | 56 | 70
x2 = 0.7143 | 3.65 | 5.85 | 9.47 | 14.4 | 21 | 30.5 | 40.9 | 54.9 | 68.7
x2 = 0.8571 | 3.18 | 5.14 | 8.31 | 12.7 | 19.3 | 28.4 | 38.2 | 51.8 | 66.4

COC(=O)C1=C(C)NC(C)=C(C(=O)OCC(C)C)C1c1ccccc1[N+](=O)[O-] (stereo not drawn) + CC(C)O + O
solubility (g/100 g solution)
Details | 278.15 K | 283.15 K | 288.15 K | 293.15 K | 298.15 K | 303.15 K | 308.15 K | 313.15 K | 318.15 K
x2 = 0.06974 | 0.651 | 0.819 | 1.02 | 1.25 | 1.49 | 1.76 | 2.04 | 2.35 | 2.71
x2 = 0.1666 | 1.78 | 2.22 | 2.67 | 3.18 | 3.8 | 4.49 | 5.28 | 6.22 | 7.31
x2 = 0.3103 | 2.4 | 2.84 | 3.46 | 4 | 4.73 | 5.54 | 6.37 | 7.36 | 8.44
x2 = 0.5454 | 3.18 | 3.82 | 4.5 | 5.27 | 6.2 | 7.21 | 8.34 | 9.68 | 11.1

CCOC(=O)C1=CC2(CC)CCCN3CCc4c(n1c1ccccc41)C32 (stereo not drawn) + CCO + O
solubility (g/100 g solution)
Details | 283.15 K | 288.15 K | 293.15 K | 298.15 K | 303.15 K | 308.15 K | 313.15 K | 318.15 K | 323.15 K
x2 = 0.2 | 0.00578 | 0.00816 | 0.0113 | 0.0153 | 0.0208 | 0.028 | 0.0375 | 0.0513 | 0.0683
x2 = 0.3 | 0.0454 | 0.0591 | 0.0768 | 0.0954 | 0.12 | 0.153 | 0.185 | 0.238 | 0.304
x2 = 0.4 | 0.106 | 0.138 | 0.178 | 0.211 | 0.277 | 0.346 | 0.421 | 0.524 | 0.668
x2 = 0.5 | 0.184 | 0.235 | 0.301 | 0.37 | 0.468 | 0.586 | 0.726 | 0.921 | 1.12
x2 = 0.6 | 0.257 | 0.331 | 0.43 | 0.52 | 0.639 | 0.824 | 0.996 | 1.25 | 1.54
x2 = 0.7 | 0.335 | 0.418 | 0.546 | 0.661 | 0.831 | 1.04 | 1.3 | 1.61 | 1.97
x2 = 0.8 | 0.372 | 0.479 | 0.612 | 0.757 | 0.941 | 1.21 | 1.47 | 1.87 | 2.26
x2 = 0.9 | 0.363 | 0.466 | 0.609 | 0.766 | 0.951 | 1.23 | 1.5 | 1.94 | 2.39

O=c1ccc2ccccc2o1 + CO + O
solubility (g/100 g solution)
Details | 278.15 K | 283.15 K | 288.15 K | 293.15 K | 298.15 K | 303.15 K | 308.15 K | 313.15 K | 318.15 K
x2 = 0.1 | 0.0349 | 0.0594 | 0.105 | 0.171 | 0.28 | 0.435 | 0.655 | 0.988 | 1.41
x2 = 0.2 | 0.147 | 0.236 | 0.385 | 0.598 | 0.922 | 1.43 | 2.06 | 3.08 | 4.3
x2 = 0.3 | 0.262 | 0.479 | 0.869 | 1.6 | 2.58 | 4.47 | 7.35 | 12.8 | 19.9
x2 = 0.4 | 0.573 | 1.11 | 1.99 | 3.53 | 6.25 | 10.8 | 17.7 | 28.7 | 41.9
x2 = 0.5 | 1.13 | 1.96 | 3.86 | 6.41 | 11.2 | 18.6 | 28.4 | 43.2 | 59.6
x2 = 0.6 | 1.82 | 3.3 | 5.98 | 9.8 | 16 | 24.8 | 38.3 | 52.1 | 67
x2 = 0.7 | 2.64 | 4.53 | 7.8 | 12.7 | 20.2 | 30.4 | 42.9 | 59.2 | 73.3
x2 = 0.8 | 3.28 | 5.51 | 9.32 | 15.7 | 22.1 | 34.3 | 46.8 | 62.9 | 77.3
x2 = 0.9 | 4.13 | 6.53 | 11.1 | 17.5 | 25.5 | 36.7 | 50.3 | 65.3 | 79.6

CCCCN1CCCCC1C(=O)Nc1c(C)cccc1C.Cl.O (stereo not drawn) + CCO + O
solubility (g/100 g solution)
Details | 293.15 K | 298.15 K | 303.15 K | 308.15 K | 313.15 K | 318.15 K | 323.15 K | 328.15 K | 333.15 K
x2 = 0.1 | 3.04 | 3.34 | 4.11 | 4.86 | 5.9 | 7.35 | 9.3 | 11.2 | 12.9
x2 = 0.2 | 3.1 | 3.37 | 4.04 | 4.84 | 6.41 | 7.92 | 10.1 | 12.9 | 15.1
x2 = 0.3 | 2.9 | 3.27 | 3.99 | 5.42 | 7.36 | 9.56 | 12.4 | 15.8 | 19
x2 = 0.4 | 2.85 | 3.29 | 4.28 | 5.77 | 7.83 | 10.9 | 14.2 | 18.3 | 22.9
x2 = 0.5 | 2.81 | 3.22 | 4.31 | 5.96 | 8.48 | 11.3 | 14.9 | 19.4 | 23.9
x2 = 0.6 | 3.15 | 3.43 | 4.62 | 6.22 | 8.61 | 11.5 | 15.1 | 19.4 | 23.7
x2 = 0.7 | 3.44 | 3.95 | 5.29 | 7.07 | 9.34 | 12.3 | 16.1 | 20.6 | 25
x2 = 0.8 | 3.84 | 4.16 | 5.55 | 7.29 | 9.54 | 12.4 | 15.9 | 20.2 | 24.7
x2 = 0.9 | 3.83 | 4.34 | 5.57 | 7.26 | 9.51 | 12.2 | 15.5 | 19.6 | 24

O=c1[nH]cc(F)c(=O)[nH]1 + CO + C1CCOC1
solubility (g/100 g solution)
Details | 283.15 K | 288.15 K | 293.15 K | 298.15 K | 303.15 K | 308.15 K | 313.15 K | 318.15 K | 323.15 K
x2 = 0.36 | 0.152 | 0.171 | 0.193 | 0.219 | 0.254 | 0.294 | 0.348 | 0.403 | 0.473
x2 = 0.6 | 0.283 | 0.317 | 0.356 | 0.407 | 0.472 | 0.546 | 0.639 | 0.745 | 0.862
x2 = 0.7714 | 0.423 | 0.483 | 0.552 | 0.636 | 0.73 | 0.876 | 1.04 | 1.23 | 1.42
x2 = 0.9 | 0.58 | 0.665 | 0.789 | 0.914 | 1.05 | 1.25 | 1.43 | 1.65 | 1.85

O=C(CC(=O)c1ccccc1)c1ccccc1 + CO + O
solubility (g/100 g solution)
Details | 278.15 K | 283.15 K | 288.15 K | 293.15 K | 298.15 K | 303.15 K | 308.15 K | 313.15 K | 318.15 K
x2 = 0.2 | 0.0215 | 0.0248 | 0.0305 | 0.0358 | 0.0488 | 0.0621 | 0.0667 | 0.0775 | 0.0881
x2 = 0.4 | 0.0257 | 0.0323 | 0.039 | 0.0541 | 0.0826 | 0.13 | 0.162 | 0.236 | 0.322
x2 = 0.6 | 0.165 | 0.351 | 0.562 | 0.643 | 0.783 | 0.822 | 0.987 | 1.02 | 1.05
x2 = 0.8 | 0.491 | 0.788 | 1.01 | 1.11 | 1.35 | 1.7 | 1.98 | 2.52 | 2.72

Cc1nc(CCl)nc2ccccc12 + CCOC(C)=O + C1CCCCC1
solubility (g/100 g solution)
Details | x2 = 0.163 | x2 = 0.321 | x2 = 0.475 | x2 = 0.624 | x2 = 0.768 | x2 = 0.909
281.15 K | 0.0748 | 0.106 | 0.134 | 0.162 | 0.187 | 0.212
286.15 K | 0.102 | 0.139 | 0.176 | 0.21 | 0.244 | 0.276
291.15 K | 0.134 | 0.18 | 0.225 | 0.27 | 0.312 | 0.352
296.15 K | 0.172 | 0.229 | 0.285 | 0.339 | 0.392 | 0.439
301.15 K | 0.22 | 0.29 | 0.357 | 0.42 | 0.481 | 0.539
306.15 K | 0.276 | 0.357 | 0.437 | 0.511 | 0.582 | 0.65
311.15 K | 0.342 | 0.435 | 0.526 | 0.61 | 0.692 | 0.772
316.15 K | 0.418 | 0.523 | 0.623 | 0.718 | 0.81 | 0.898
321.15 K | 0.504 | 0.619 | 0.727 | 0.833 | 0.934 | 1.03
326.15 K | 0.599 | 0.721 | 0.84 | 0.951 | 1.06 | 1.16
331.15 K | 0.704 | 0.833 | 0.955 | 1.07 | 1.19 | 1.3

O=[N+]([O-])c1cc[nH]n1 + CC(C)=O + O
solubility (g/100 g solution)
Details | 283.15 K | 288.15 K | 293.15 K | 298.15 K | 303.15 K | 308.15 K | 313.15 K | 318.15 K | 323.15 K
x2 = 0.03333 | 0.251 | 0.321 | 0.373 | 0.471 | 0.552 | 0.72 | 0.876 | 1.07 | 1.32
x2 = 0.07199 | 0.297 | 0.351 | 0.41 | 0.49 | 0.576 | 0.71 | 0.865 | 1.05 | 1.29
x2 = 0.1174 | 0.313 | 0.362 | 0.422 | 0.501 | 0.594 | 0.708 | 0.855 | 1.05 | 1.29
x2 = 0.1714 | 0.322 | 0.371 | 0.43 | 0.507 | 0.597 | 0.705 | 0.853 | 1.05 | 1.24
x2 = 0.2368 | 0.324 | 0.369 | 0.426 | 0.491 | 0.573 | 0.683 | 0.813 | 0.984 | 1.17
x2 = 0.3176 | 0.319 | 0.37 | 0.422 | 0.487 | 0.564 | 0.662 | 0.79 | 0.932 | 1.11
x2 = 0.42 | 0.324 | 0.366 | 0.414 | 0.476 | 0.543 | 0.637 | 0.749 | 0.871 | 0.999
x2 = 0.5538 | 0.306 | 0.354 | 0.398 | 0.457 | 0.527 | 0.614 | 0.722 | 0.873 | 1.02
x2 = 0.7363 | 0.299 | 0.349 | 0.397 | 0.461 | 0.515 | 0.576 | 0.678 | 0.794 | 0.916
